Measurements: article PMC9511441, “Semisynthetic teicoplanin derivatives with dual antimicrobial activity against SARS-CoV-2 and multiresistant bacteria” (Scientific Reports, 2022)
Read-outs that look alike come from different tables or passages of the source.

Key:
Type in all cases: cell-based
E. faecalis = test: MIC, broth microdilution; conditions: for MIC: Enterococcus faecalis
Description: (§1) We determined the minimal inhibitory concentrations (MIC) of the teicoplanin conjugates for a large panel of Gram-positive bacterial strains, using vancomycin, unmodified teicoplanin, dalbavancin and oritavancin as reference compounds. […] The bacterial strains (see Suppl. Table S5 for all details) were selected to achieve maximum diversity of multidrug-resistance and include strains with known mechanisms of resistance to glycopeptides in clinical use. The S. epidermidis and S. haemolyticus strains resistant to dalbavancin and oritavancin were obtained in vitro from clinical isolates sensitive to the glycopeptide antibiotics.

S. aureus = test: MIC, broth microdilution; conditions: for MIC: Staphylococcus aureus
Description: as §1

S. haemolyticus = test: MIC, broth microdilution; conditions: for MIC: Staphylococcus haemolyticus
Description: as §1

S.pyogenes = test: MIC, broth microdilution; conditions: for MIC: Streptococcus pyogenes
Description: as §1

E. faecium = test: microbe, parasite or virus in culture; conditions: for MIC: Enterococcus faecium
Description: as §1

S. epidermidis = test: microbe, parasite or virus in culture; conditions: for MIC: Staphylococcus epidermidis
Description: as §1

CN[C@H]1C(=O)N[C@@H]2Cc3ccc(cc3)Oc3cc4cc(c3O[C@@H]3O[C@H](C(=O)O)[C@@H](O)[C@H](O)[C@H]3NC(=O)CCCCCCCCC(C)C)Oc3ccc(cc3Cl)[C@@H](O)[C@@H]3NC(=O)[C@H](NC(=O)[C@@H]4NC(=O)[C@@H](NC2=O)c2cc(cc(O)c2Cl)Oc2cc1ccc2O)c1ccc(O)c(c1)-c1c(O[C@H]2O[C@H](CO)[C@@H](O)[C@H](O)[C@@H]2O)cc(O)cc1[C@@H](C(=O)NCCCN(C)C)NC3=O [DALB, dalbavancin, reference compound]
48 µg/mL: Average MIC value (E. faecium; E. faecium VAN^R,TEI^R/VanA, 8 strains)
0,125 µg/ml: MIC value (S. aureus; S. aureus 73OL, MRSA) | MIC value (S. aureus; S. aureus 214OL, MRSA) | MIC value (S. aureus; S. aureus A6918, MRSA) | MIC value (S. aureus; S. aureus ATCC29213, MSSA) | MIC value (S. aureus; S. aureus MSSA476, MSSA) | MIC value (S. aureus; S. aureus Mu50, MRSA) | MIC value (S. aureus; S. aureus N315, MRSA) | MIC value (S. aureus; S. aureus Newman, MSSA) | MIC value (S. aureus; S. aureus SA564, MSSA) | MIC value (S. epidermidis; S.epidermidis TEI_R2, mecA)
8 µg/mL: MIC value (S. haemolyticus; S.haemolyticus DALB_R2, mecA) | MIC value (S. haemolyticus; S.haemolyticus ORI_R1, mecA)
0.125 µg/mL: Average MIC value (S. aureus; S. aureus MSSA, 4 strains)
0,03125 µg/ml: MIC value (S. aureus; S. aureus 1041OL, MRSA)
64 µg/mL: Average MIC value (E. faecalis; E. faecalis VAN^R,TEI^R/VanA, 1 strain) | MIC value (E. faecalis; E.faecalis V583, VAN,TEI/VanA) | MIC value (E. faecium; E.faecium E335, VAN,TEI,LNZ/VanA) | MIC value (E. faecium; E.faecium E832, VAN,TEI,LNZ/VanA) | MIC value (E. faecium; E.faecium E1114, VAN,TEI,LNZ/VanA) | MIC value (E. faecium; E.faecium E1131, VAN,TEI,LNZ/VanA)
0,25 µg/ml: MIC value (E. faecalis; E.faecalis JH2-2) | MIC value (E. faecalis; E.faecalis OG1RF) | MIC value (S.pyogenes; S.pyogenes H550) | MIC value (S.pyogenes; S.pyogenes H578) | MIC value (E. faecium; E.faecium TX0016) | MIC value (S. epidermidis; S.epidermidis ORI_R4, mecA) | MIC value (S. epidermidis; S.epidermidis TEI_R1, mecA)
0,0625 µg/ml: MIC value (S. aureus; S. aureus A6919, MRSA) | MIC value (S. aureus; S. aureus USA300, CA-MRSA) | MIC value (S.pyogenes; S.pyogenes H232)
1.77 µg/mL: Average MIC value (S. epidermidis; S. epidermidis mecA, 6 strains)
0.1 µg/mL: Average MIC value (S. aureus; S. aureus MRSA, 7 strains)
2 µg/mL: MIC value (S. haemolyticus; S.haemolyticus DALB_R1, mecA) | MIC value (S. haemolyticus; S.haemolyticus DALB_R3, mecA) | MIC value (S. haemolyticus; S.haemolyticus DALB_R4, mecA) | MIC value (S. epidermidis; S.epidermidis ORI_R3, mecA)
1 µg/mL: MIC value (S. haemolyticus; S.haemolyticus DALB_R5, mecA)
32 µg/mL: MIC value (E. faecium; E.faecium E355, VAN,TEI,LNZ/VanA) | MIC value (E. faecium; E.faecium E854, VAN,TEI,LNZ/VanA) | MIC value (E. faecium; E.faecium E859, VAN,TEI,LNZ/VanA) | MIC value (E. faecium; E.faecium E1132, VAN,TEI,LNZ/VanA)
0.0625 µg/mL: Average MIC value (S. aureus; S. aureus CA-MRSA, 1 strain)
0.25 µg/mL: Average MIC value (E. faecalis; E. faecalis VAN^S, TEI^S, 2 strains) | Average MIC value (E. faecium; E. faecium VAN^S, TEI^S, 1 strain)
4 µg/mL: MIC value (S. epidermidis; S.epidermidis ORI_R1, mecA) | MIC value (S. epidermidis; S.epidermidis ORI_R2, mecA)
3.83 µg/mL: Average MIC value (S. haemolyticus; S. haemolyticus mecA, 6 strains)

CN[C@H](CC(C)C)C(=O)N[C@H]1C(=O)N[C@@H](CC(N)=O)C(=O)N[C@H]2C(=O)N[C@H]3C(=O)N[C@H](C(=O)N[C@H](C(=O)O)c4cc(O)cc(O)c4-c4cc3ccc4O)[C@H](O)c3ccc(c(Cl)c3)Oc3cc2cc(c3O[C@@H]2O[C@H](CO)[C@@H](O)[C@H](O)[C@H]2O[C@H]2C[C@](C)(N)[C@H](O)[C@H](C)O2)Oc2ccc(cc2Cl)[C@H]1O [VAN, vancomycin, reference compound]
8 µg/mL: MIC (S. haemolyticus; S.haemolyticus DALB_R3, mecA, read-out: MIC value) | MIC (S. epidermidis; read-out: MIC value, S.epidermidis ORI_R1, mecA) | MIC (S. epidermidis; read-out: MIC value, S.epidermidis ORI_R2, mecA) | MIC (S. epidermidis; read-out: MIC value, S.epidermidis ORI_R3, mecA) | MIC (S. epidermidis; read-out: MIC value, S.epidermidis TEI_R2, mecA)
1 µg/mL: MIC (S. aureus; ATCC 29213 / MSSA, read-out: MIC value, S. aureus ATCC29213, MSSA) | MIC (S. aureus; MRSA, read-out: MIC value, S. aureus 73OL, MRSA) | MIC (S. aureus; MRSA, read-out: MIC value, S. aureus 214OL, MRSA) | MIC (S. aureus; MRSA, read-out: MIC value, S. aureus 1041OL, MRSA) | MIC (S. aureus; MRSA, read-out: MIC value, S. aureus A6918, MRSA)
16 µg/mL: MIC (S. haemolyticus; S.haemolyticus DALB_R5, mecA, read-out: MIC value) | MIC (S. haemolyticus; S.haemolyticus ORI_R1, mecA, read-out: MIC value)
4 µg/mL: MIC (S. aureus; MRSA, read-out: MIC value, S. aureus Mu50, MRSA) | MIC (S. epidermidis; read-out: MIC value, S.epidermidis ORI_R4, mecA) | MIC (S. epidermidis; read-out: MIC value, S.epidermidis TEI_R1, mecA)
6.67 µg/mL: MIC (S. epidermidis; read-out: Average MIC value, S. epidermidis mecA, 6 strains)
32 µg/mL: MIC (S. haemolyticus; S.haemolyticus DALB_R1, mecA, read-out: MIC value) | MIC (S. haemolyticus; S.haemolyticus DALB_R4, mecA, read-out: MIC value)
0.25 µg/mL: MIC (E. faecalis; read-out: Average MIC value, E. faecalis VAN^S, TEI^S, 2 strains) | MIC (E. faecalis; read-out: MIC value, E.faecalis JH2-2) | MIC (E. faecalis; read-out: MIC value, E.faecalis OG1RF) | MIC (S. aureus; MRSA / USA300, read-out: MIC value, S. aureus USA300, CA-MRSA) | MIC (S. aureus; MRSA, read-out: Average MIC value, S. aureus CA-MRSA, 1 strain) | MIC (S. aureus; MRSA, read-out: MIC value, S. aureus A6919, MRSA) | MIC (E. faecium; read-out: Average MIC value, E. faecium VAN^S, TEI^S, 1 strain) | MIC (E. faecium; read-out: MIC value, E.faecium TX0016)
> 64 µg/mL: MIC (E. faecalis; read-out: Average MIC value, E. faecalis VAN^R,TEI^R/VanA, 1 strain) | MIC (E. faecalis; read-out: MIC value, E.faecalis V583, VAN,TEI/VanA) | MIC (E. faecium; read-out: Average MIC value, E. faecium VAN^R,TEI^R/VanA, 8 strains) | MIC (E. faecium; read-out: MIC value, E.faecium E335, VAN,TEI,LNZ/VanA) | MIC (E. faecium; read-out: MIC value, E.faecium E355, VAN,TEI,LNZ/VanA) | MIC (E. faecium; read-out: MIC value, E.faecium E832, VAN,TEI,LNZ/VanA) | MIC (E. faecium; read-out: MIC value, E.faecium E854, VAN,TEI,LNZ/VanA) | MIC (E. faecium; read-out: MIC value, E.faecium E859, VAN,TEI,LNZ/VanA) | MIC (E. faecium; read-out: MIC value, E.faecium E1114, VAN,TEI,LNZ/VanA) | MIC (E. faecium; read-out: MIC value, E.faecium E1131, VAN,TEI,LNZ/VanA) | MIC (E. faecium; read-out: MIC value, E.faecium E1132, VAN,TEI,LNZ/VanA)
64 µg/mL: MIC (S. haemolyticus; S.haemolyticus DALB_R2, mecA, read-out: MIC value)
28 µg/mL: MIC (S. haemolyticus; S. haemolyticus mecA, 6 strains, read-out: Average MIC value)
0.5 µg/mL: MIC (S. aureus; MRSA, read-out: MIC value, S. aureus N315, MRSA) | MIC (S. aureus; MSSA / NEWMAN, read-out: MIC value, S. aureus Newman, MSSA) | MIC (S. aureus; MSSA, read-out: MIC value, S. aureus MSSA476, MSSA) | MIC (S. aureus; MSSA, read-out: MIC value, S. aureus SA564, MSSA)
1.25 µg/mL: MIC (S. aureus; MRSA, read-out: Average MIC value, S. aureus MRSA, 7 strains)
0.0625 µg/mL: MIC (S.pyogenes; read-out: MIC value, S.pyogenes H232) | MIC (S.pyogenes; read-out: MIC value, S.pyogenes H550) | MIC (S.pyogenes; read-out: MIC value, S.pyogenes H578)
0.625 µg/mL: MIC (S. aureus; MSSA, read-out: Average MIC value, S. aureus MSSA, 4 strains)
